Laboratory results as given in patent US7045528B2, “Benzofused heterozryl amide derivatives of thienopyridines useful as therapeutic agents, pharmaceutical compositions including the same, and methods for their use” (Agouron Pharmaceuticals, Inc., priority 2002, dated 2006).
Like-named read-outs stand apart in the source and are kept apart here.

What was measured:
[1] = target: T1, PDGFRβ (Homo sapiens, UniProt P09619); assay: PAE-PDGFRβ phosphorylation in PAE-PDGFRB cells assay; format: cell-based
T1 construct: expressed in transfected cells; host or cells: porcine aorta endothelial (PAE)-PDGFRβ cells
T1 sequence (P09619 33-1106): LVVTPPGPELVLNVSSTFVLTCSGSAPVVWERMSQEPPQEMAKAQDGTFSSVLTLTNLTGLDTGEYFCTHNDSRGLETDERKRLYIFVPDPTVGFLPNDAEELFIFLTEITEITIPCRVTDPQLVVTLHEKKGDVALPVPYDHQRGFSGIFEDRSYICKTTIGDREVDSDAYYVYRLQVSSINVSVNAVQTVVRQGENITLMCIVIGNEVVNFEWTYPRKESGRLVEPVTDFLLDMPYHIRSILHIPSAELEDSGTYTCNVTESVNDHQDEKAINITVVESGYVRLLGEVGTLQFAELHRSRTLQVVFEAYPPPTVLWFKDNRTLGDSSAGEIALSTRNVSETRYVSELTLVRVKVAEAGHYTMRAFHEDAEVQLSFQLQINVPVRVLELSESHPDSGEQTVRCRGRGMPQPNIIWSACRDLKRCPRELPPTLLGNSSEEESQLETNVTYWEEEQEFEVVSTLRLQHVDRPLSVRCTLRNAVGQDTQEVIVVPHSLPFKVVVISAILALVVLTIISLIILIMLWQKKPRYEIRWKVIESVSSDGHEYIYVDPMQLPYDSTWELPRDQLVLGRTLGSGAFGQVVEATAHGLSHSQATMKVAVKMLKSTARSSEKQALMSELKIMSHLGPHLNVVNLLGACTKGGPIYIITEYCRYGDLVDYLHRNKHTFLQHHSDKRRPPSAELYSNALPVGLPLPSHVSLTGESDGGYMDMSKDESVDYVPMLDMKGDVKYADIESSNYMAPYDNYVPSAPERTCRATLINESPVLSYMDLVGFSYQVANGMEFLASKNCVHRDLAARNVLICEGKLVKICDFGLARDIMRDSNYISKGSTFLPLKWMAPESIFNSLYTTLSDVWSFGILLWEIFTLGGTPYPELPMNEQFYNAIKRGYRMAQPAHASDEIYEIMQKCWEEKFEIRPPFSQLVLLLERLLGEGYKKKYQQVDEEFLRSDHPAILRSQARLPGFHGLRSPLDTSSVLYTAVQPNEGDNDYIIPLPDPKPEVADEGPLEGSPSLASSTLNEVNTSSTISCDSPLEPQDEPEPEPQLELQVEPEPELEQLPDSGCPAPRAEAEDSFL
In short: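 PAE cells overexpressing human PDGFRβ, serum-starved 16 h (0.1% FBS), were given compound for 1 h at 37 °C (0.5% DMSO) and then stimulated with 1 μg/mL PDGF-BB plus 2 mM Na3VO4 for 8 min. Receptor autophosphorylation was read by capture ELISA (HRP-PY20, TMB, 450 nm); IC50 from 4-parameter fit.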

[2] = system: Huvec; assay: bFGF Huvec proliferation; format: cell-based, human; details: Homo sapiens, HUVEC
[3] = system: human umbilical vein endothelial cells (HUVEC); assay: HUVEC+VEGF proliferation assay; format: cell-based; details: Homo sapiens, HUVEC; VEGF 6 ng/mL, 72 h, MTT
In short: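 Exponentially growing passage 3–4 HUVEC were starved 24 h in F12K + 1% FBS, given compound (0.1% final DMSO) 1 h before 6 ng/mL final VEGF, then cultured 72 h. Proliferation was read as MTT dye reduction (4 h exposure), absorbance at 595 nm.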

[4] = target: T2, unphosphorylated VEGF-R2Δ50 (FLVK) (Homo sapiens, UniProt P35968, DEL940-989/E990V); assay: VEGF-R2 coupled spectrophotometric assay, unphosphorylated VEGF-R2Δ50 (FLVK); format: biochemical; details: for inhibition at 0.05 µM: 50 nM compound, read-out: FLVK (% inh @ 50 nM); for inhibition at 0.05 µM / Ki: unphosphorylated VEGF-R2Δ50; for inhibition at 0.1 µM: percent inhibition at 100 nM, library amides from Example 101 (R101), crude mixtures in DMSO, read-out: FLVK (% @ 100 nM)
T2 construct: VEGF-R2Δ50 contains residues 806–939 and 990–1171; made in house; host or cells: baculovirus/insect cell system
T2 sequence (P35968 with tags, fused parts or gaps DEL940-989/E990V limits assumed): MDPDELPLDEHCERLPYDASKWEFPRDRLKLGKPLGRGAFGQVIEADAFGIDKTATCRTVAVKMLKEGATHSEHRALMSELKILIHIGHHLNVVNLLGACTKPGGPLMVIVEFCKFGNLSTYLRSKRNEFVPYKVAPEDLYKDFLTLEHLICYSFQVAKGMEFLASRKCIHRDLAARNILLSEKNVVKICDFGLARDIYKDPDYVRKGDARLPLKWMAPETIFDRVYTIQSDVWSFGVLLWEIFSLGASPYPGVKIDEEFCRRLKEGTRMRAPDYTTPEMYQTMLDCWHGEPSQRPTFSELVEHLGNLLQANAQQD
In short: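 Baculovirus-expressed human VEGF-R2Δ50 (kinase insert partly deleted, E990V), unphosphorylated form; ADP production coupled via PK/LDH to NADH oxidation, read at 340 nm. 20 mM poly(E4Y1), 3 mM ATP, 60 mM MgCl2, 2 mM MnCl2, 200 mM HEPES pH 7.5; 5–40 nM enzyme. Ki from Morrison tight-binding fit.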

[5] = target: T3, KDR (VEGFR2) (Homo sapiens, UniProt P35968); assay: KDR (VEGFR2) phosphorylation in PAE-KDR cells assay; format: cell-based; details: PAE cells overexpressing human KDR, VEGF stimulated; read-out: PAE KDR autophos IC50 (nM) AVG
T3 construct: expressed in transfected cells; host or cells: porcine aorta endothelial (PAE)-KDR cells
T3 sequence (P35968 20-1356): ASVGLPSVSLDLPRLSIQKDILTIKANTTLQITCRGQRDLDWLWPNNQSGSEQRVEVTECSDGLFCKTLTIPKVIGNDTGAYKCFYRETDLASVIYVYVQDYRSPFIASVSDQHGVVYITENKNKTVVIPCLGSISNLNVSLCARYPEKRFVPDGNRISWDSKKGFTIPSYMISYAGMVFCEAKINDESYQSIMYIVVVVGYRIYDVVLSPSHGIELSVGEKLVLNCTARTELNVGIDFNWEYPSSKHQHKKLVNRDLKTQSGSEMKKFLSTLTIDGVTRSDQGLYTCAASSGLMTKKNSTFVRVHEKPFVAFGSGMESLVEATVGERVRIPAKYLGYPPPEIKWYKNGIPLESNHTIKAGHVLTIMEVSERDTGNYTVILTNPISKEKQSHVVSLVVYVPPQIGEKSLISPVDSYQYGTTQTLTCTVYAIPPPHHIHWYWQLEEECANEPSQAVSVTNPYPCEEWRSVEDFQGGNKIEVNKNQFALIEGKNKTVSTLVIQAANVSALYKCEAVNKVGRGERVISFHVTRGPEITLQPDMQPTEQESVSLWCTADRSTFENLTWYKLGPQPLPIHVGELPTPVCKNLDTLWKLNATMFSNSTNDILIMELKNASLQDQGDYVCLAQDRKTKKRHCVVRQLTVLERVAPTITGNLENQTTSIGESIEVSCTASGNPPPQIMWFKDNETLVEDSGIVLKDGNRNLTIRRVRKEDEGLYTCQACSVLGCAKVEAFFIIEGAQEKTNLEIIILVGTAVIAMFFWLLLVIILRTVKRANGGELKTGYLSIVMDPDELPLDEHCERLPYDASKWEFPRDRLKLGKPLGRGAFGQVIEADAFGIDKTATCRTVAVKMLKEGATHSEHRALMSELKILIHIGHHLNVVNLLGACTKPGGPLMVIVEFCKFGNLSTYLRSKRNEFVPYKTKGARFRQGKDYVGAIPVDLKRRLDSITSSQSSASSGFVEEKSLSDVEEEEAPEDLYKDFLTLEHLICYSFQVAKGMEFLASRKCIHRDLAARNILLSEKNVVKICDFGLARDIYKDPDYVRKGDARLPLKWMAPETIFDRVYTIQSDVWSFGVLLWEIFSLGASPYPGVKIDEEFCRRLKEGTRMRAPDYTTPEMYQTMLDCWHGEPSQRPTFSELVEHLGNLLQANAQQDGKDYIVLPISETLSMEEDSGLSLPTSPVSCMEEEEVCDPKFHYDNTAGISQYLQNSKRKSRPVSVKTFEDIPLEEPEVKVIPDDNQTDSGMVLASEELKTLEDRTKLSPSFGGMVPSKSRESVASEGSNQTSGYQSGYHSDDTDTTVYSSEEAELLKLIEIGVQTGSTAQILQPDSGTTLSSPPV
Protocol: KDR (VEGFR2) Phosphorylation in PAE-KDR Cells Assay
This assay determines the ability of a test compound to inhibit the autophosphorylation of KDR in porcine aorta endothelial (PAE)-KDR cells. PAE cells that overexpress human KDR were used in this assay. The cells were cultured in Ham's F12 media supplemented with 10% fetal bovine serum (FBS) and 400 ug/mL G418. Thirty thousands cells were seeded into each well of a 96-well plate in 75 μL of growth media and allowed to attach for 6 hours at 37° C. Cells were then exposed to the starvation media (Ham's F12 media supplemented with 0.1% FBS) for 16 hours. After the starvation period was over, 10 μL of test agent in 5% DMSO in starvation media were added to the test wells and 10 μL of the vehicle (5% DMSO in starvation media) were added into the control wells. The final DMSO concentration in each well was 0.5%. Plates were incubated at 37° C. for 1 hour and the cells were then stimulated with 500 ng/ml VEGF (commercially available from R & D System) in the presence of 2 mM Na3VO4 for 8 minutes. The cells were washed once with 1 mm Na3VO4 in HBSS and lysed by adding 50 μL per well of lysis buffer. One hundred μL of dilution buffer were then added to each well and the diluted cell lysate was transferred to a 96-well goat ant-rabbit coated plate (commercially available from Pierce) which was pre-coated with Rabbit anti Human Anti-flk-1 C-20 antibody (commercially available from Santa Cruz). The plates were incubated at room temperature for 2 hours and washed seven times with 1% Tween 20 in PBS. HRP-PY20 (commercially available from Santa Cruz) was diluted and added to the plate for a 30-minute incubation. Plates were then washed again and TMB peroxidase substrate (commercially available from Kirkegaard & Perry) was added for a 10-minute incubation. One hundred μL of 0.09 N H2SO4 was added to each well of the 96-well plates to stop the reaction. Phosphorylation status was assessed by spectrophotometer reading at 450 nm. IC50 values were calculated by curve fitting using a four-parameter analysis.

[6] = target: T4, FGF-R1 (Homo sapiens, UniProt P11362, C488A/C584S/L457V); assay: FGF-R spectrophotometric assay; format: biochemical; details: percent inhibition at 100 nM; library amides from Example 101 (R101), crude mixtures in DMSO
T4 construct: starting from the endogenous methionine residue 456 to glutamate 766; made in house; host or cells: baculovirus vector expression system
T4 sequence (P11362 456-766 L457V/C488A/C584S): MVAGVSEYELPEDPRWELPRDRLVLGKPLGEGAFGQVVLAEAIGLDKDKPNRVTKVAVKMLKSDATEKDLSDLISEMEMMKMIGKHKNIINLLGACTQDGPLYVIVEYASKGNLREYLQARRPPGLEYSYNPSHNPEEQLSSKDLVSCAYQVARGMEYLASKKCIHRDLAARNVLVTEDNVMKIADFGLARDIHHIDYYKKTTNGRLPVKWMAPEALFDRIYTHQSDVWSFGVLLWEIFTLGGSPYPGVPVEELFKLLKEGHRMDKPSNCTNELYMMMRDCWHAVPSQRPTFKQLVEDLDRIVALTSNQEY
Protocol: FGF-R1 Construct for Assay:
The intracellular kinase domain of human FGF-R1 was expressed using the baculovirus vector expression system starting from the endogenous methionine residue 456 to glutamate 766, according to the residue numbering system of Mohammadi et al., Mol. Cell. Bio., 16, 977–989 (1996). In addition, the construct also has the following 3 amino acid substitutions: L457V, C488A, and C584S.
The spectrophotometric assay was carried out as described above for VEGF-R2, except for the following changes in concentration: FGF-R=50 nM, ATP=2 mM, and poly(E4Y1)=15 mM.

[7] = PAE cells overexpressing human PDGFRβ, PDGF-BB stimulated, read-out: PAE PDGFR autophos IC50 (nM) AVG
[8] = library amides from Example 101 (R101), crude mixtures in DMSO, read-out: PAE PDGFR autophos IC50

SMILES	IC50 [1, 7]	melting point	inhibition at 0.05 µM [4]	Ki [4]	IC50 [5]	IC50 [1, 8]	inhibition at 0.1 µM [6]	inhibition at 0.1 µM [4]	IC50 [2]	IC50 [3]
CNC(=O)c1c(C)sc2cc(Oc3ccnc4cc(C(=O)N5CC(O)C5)sc34)ccc12 [Example 9, 6-(2-[3-Hydroxyazetidine-1-carbonyl]thieno[3,2-b]pyridin-7-yloxy)-2-methylbenzo[b]thiophene-3-carboxylic acid methylamide]	313 nM	237 to 239 °C	83%	1.57 nM					135 nM	13 nM
Cc1c(C(=O)NCC2CC2)c2ccc(Oc3ccnc4cc(-c5nc(C(C)(C)O)cs5)sc34)cc2n1C [Example 57, 6-{2-[4(1-Hydroxy-1-methyl-ethyl)-thiazol-2-yl]-thieno[3,2-b]pyridin-7-yloxy)-1,2-dimethyl-1H-indole-3-carboxylic acid cyclopropylmethyl-amide]			63%	9.8 nM	87 nM					
CNC(=O)c1c(C)sc2cc(Oc3ccnc4cc(-c5ccnn5C)sc34)ccc12 [Example 10, 2-Methyl-6-(2-[2-methyl-2H-pyrazol-3-yl]thieno[3,2-b]pyridin-7-yloxy)benzo[b]thiophene-3-carboxylic acid methylamide]	451 nM	210 to 212 °C	74%	2.31 nM					99 nM	10 nM
Cc1oc2cc(Oc3ccnc4ccsc34)ccc2c1C(=O)Nc1cc(-c2ccco2)n[nH]1						> 100 nM	1%	101%		
CNC(=O)c1c(C)sc2cc(Oc3ccnc4cc(C(=O)N5C[C@@H](O)[C@@H](O)C5)sc34)ccc12 [Example 7, 6-(2-[meso-3,4-dihydroxypyrrolidine-1-carbonyl]thieno[3,2-b]pyridin-7-yloxy)-2-methylbenzo[b]thiophene-3-carboxylic acid methylamide]			95%	1.04 nM	1.95 nM				2470 nM	1.21 nM
Cc1oc2cc(Oc3ccnc4ccsc34)ccc2c1C(=O)Nc1ccc2cn[nH]c2c1						57 nM	0%	87%		

Further lines, with some results ahead:

IC50 [1, 7]	melting point	inhibition at 0.05 µM [4]	Ki [4]	IC50 [5]	IC50 [1, 8]	inhibition at 0.1 µM [6]	inhibition at 0.1 µM [4]	SMILES	IC50 [2]	IC50 [3]
					> 100 nM	3%	56%	Cc1oc2cc(Oc3ccnc4ccsc34)ccc2c1C(=O)Nc1cc(C2CC2)nn1C		
					> 100 nM	4%	100%	Cc1oc2cc(Oc3ccnc4ccsc34)ccc2c1C(=O)Nc1nnc(C2CC2)s1		
					> 100 nM	0%	96%	Cc1oc2cc(Oc3ccnc4ccsc34)ccc2c1C(=O)Nc1ccc2ncsc2c1		
					> 100 nM	35%	75%	Cc1oc2cc(Oc3ccnc4ccsc34)ccc2c1C(=O)Nc1nncs1		
					> 100 nM	1%	92%	COc1ccc(NC(=O)c2c(C)oc3cc(Oc4ccnc5ccsc45)ccc23)c(OC)n1		
					> 100 nM	7%	62%	Cc1csc(NC(=O)c2c(C)oc3cc(Oc4ccnc5ccsc45)ccc23)n1		
